In one series the test system is A-498 cells. As to the kind of experiment: IFN/cytokine gene expression (qRT-PCR) and secretion (MSD) in A-498 cells. It counts as cell-based, human. The settings on record: 2 μM, 24 h, vs DMSO. On the procedure:
RNA was isolated using the PureLink kit (#12183018A; Thermo Fisher) and DNA‐binding columns (Rneasy plus kit, #74134; Qiagen) and/or Dnase treatment (#12185010; Thermo Fisher). After quantification using NanoDrop, 50 ng·μL^−1 RNA was used for cDNA synthesis with SuperScript IV VILO Master Mix (#11756050; Thermo Fisher). Quantitative RT‐PCR was run with diluted cDNA (1 : 25 or 1 : 12.5), PowerUp SYBR Green Master Mix (#A25741; Thermo Fisher), and 200 nM primers (see Table S3) on a CFX Connect RT‐PCR system (BioRad, Hercules, CA, USA). Data were analyzed using the ΔΔCT method.
Cell culture medium was centrifuged at 300 g for 10 min at 4 °C and supernatant stored at −80 °C. Mouse blood was collected at termination in K2‐EDTA tubes on ice, centrifuged at 1270 g for 10 min at 4 °C, and plasma was stored at −80 °C. Cytokine levels were quantified using Mesoscale Discovery (MSD) assays: human CCL5 (#F21ZN), CXCL10 (#K151UFK), IFNβ (#K151VIK); mouse CCL5 (#K152A2K) and CXCL10 (#K152UFK). Low concentrations of human IFNβ were determined using High‐Sensitivity IFNβ ELISA (#41415‐1; PBL Assay Science, Piscataway, NJ, USA). CCL5/CXCL10 levels in some experiments were quantified using R&D Systems (Minneapolis, MN, USA) ELISAs: human CCL5 (#DY278) or CXCL10 (#DY266); mouse CCL5 (#DY478).

The target in series [1] is T1, VPS34 (Homo sapiens, UniProt Q8NEB9). The series is described as follows: cell-based. On the procedure: (§1) Compound dilution series was prepared in DMSO and further diluted to 4× final assay concentration in assay buffer (Buffer Q #PV5125, Thermo Fisher, supplemented with 2 mM DTT and 2 mM MnCl2). 2.5 μL of the diluted compounds were added to a 384‐well assay plate followed by 2.5 μL of 16.5 nM VPS34 enzyme (#PV5126; Thermo Fisher) and incubated for 15 min. Five microliters of substrate mix (20 μM ATP #PV3227 and 200 μM PI : PS substrate #PV5122; Thermo Fisher) in assay buffer was added, mixed, and incubated for 1 h. Five microliters of stop‐detection mix (Adapta kinase assay #PV5099; Thermo Fisher) were added, mixed, and incubated for 30 min and read with Artemis microplate reader. Percent remaining activity as compared to DMSO‐treated control samples was calculated and IC50 values were generated using […] PRISM (GraphPad Software, Inc., San Diego, CA, USA). The NanoBRET assay was performed using the manufacturer's protocol. Briefly, 293T cells were transfected with the Kinase‐NanoLuc® Fusion Vector DNA overnight. The next day cells were treated with compound and the NanoBRET tracer reagent and then read out measuring donor and acceptor emission wavelength (450 and 610 nm).
T1 sequence (Q8NEB9 whole entry): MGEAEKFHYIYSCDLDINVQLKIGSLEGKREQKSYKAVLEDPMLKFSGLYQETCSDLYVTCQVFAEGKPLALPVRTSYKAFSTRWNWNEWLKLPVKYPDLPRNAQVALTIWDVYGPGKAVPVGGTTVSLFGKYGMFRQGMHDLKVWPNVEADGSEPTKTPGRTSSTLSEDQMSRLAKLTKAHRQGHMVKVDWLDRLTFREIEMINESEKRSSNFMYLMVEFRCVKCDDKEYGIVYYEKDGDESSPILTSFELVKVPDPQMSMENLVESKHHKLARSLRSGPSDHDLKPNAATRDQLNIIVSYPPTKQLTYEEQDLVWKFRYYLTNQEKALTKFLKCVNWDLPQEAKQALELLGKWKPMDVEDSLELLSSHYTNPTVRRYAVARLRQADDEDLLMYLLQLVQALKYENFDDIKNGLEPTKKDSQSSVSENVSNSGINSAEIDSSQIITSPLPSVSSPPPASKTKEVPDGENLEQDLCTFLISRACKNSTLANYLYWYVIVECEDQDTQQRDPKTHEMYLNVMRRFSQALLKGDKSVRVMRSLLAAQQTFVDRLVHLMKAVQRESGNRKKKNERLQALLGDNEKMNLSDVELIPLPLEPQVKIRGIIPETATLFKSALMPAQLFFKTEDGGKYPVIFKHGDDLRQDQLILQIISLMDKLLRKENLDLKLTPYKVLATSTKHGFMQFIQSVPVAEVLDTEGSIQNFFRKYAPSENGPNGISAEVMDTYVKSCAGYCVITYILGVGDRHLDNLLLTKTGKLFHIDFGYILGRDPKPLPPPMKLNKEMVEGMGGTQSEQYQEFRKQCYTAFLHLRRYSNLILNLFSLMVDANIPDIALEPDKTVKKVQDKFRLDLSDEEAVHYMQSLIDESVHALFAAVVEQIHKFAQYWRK

The target in a further series is T2, PXR (Homo sapiens, UniProt O75469).
T2 sequence (O75469 1-434): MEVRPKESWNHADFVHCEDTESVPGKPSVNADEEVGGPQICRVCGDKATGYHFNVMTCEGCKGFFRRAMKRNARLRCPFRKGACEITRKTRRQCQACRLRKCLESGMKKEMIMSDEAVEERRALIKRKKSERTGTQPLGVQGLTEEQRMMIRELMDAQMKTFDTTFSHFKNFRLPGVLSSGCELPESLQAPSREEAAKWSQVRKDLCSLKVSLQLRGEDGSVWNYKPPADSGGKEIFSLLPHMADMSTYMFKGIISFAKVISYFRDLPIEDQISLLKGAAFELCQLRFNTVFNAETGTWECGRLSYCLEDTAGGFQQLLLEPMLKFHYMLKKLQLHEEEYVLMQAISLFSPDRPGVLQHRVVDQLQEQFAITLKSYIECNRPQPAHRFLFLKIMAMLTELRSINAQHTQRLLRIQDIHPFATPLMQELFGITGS
As to the kind of experiment: CYP3A4 induction, PXR. It counts as in vitro ADME. On the procedure:
(§2) Experiments were conducted at Aragen Life Sciences Ltd. (Hyderabad, India) according to internal standard procedures.

Another series can be described thus: pKa. The settings on record: read-out: pKa (weakly basic). Type of series: physicochemical. How it is done:
as §2

Series [2] concerns the target T1, VPS34. As to the kind of experiment: biochemical. On the procedure:
as §1

For orientation: IC50 means the midpoint of a concentration-inhibition curve. A low value points to inhibition by little substance. Broadly, the pKa is the negative logarithm of the acid dissociation constant.

For the compound `C[C@@H]1COCCN1c1cc(N2CCCC[C@@H]2C(F)(F)F)[nH]c(=O)c1` [SB02024], in the series on A-498 cells, the “transcription of IFNB1 and ISGs IRF1, IRF7, IRF9” value is on record as “significantly increased”. The figures for the IC50 at VPS34 [1] and at VPS34 [2] were 5.7 nM and 5 nM, respectively. Further, the “induction of CYP3A4 (in words)” value at PXR is given as “no induction”. In the series “pKa”, the pKa worked out at 2.2.

These data come from publication PMC11306511, “Combining VPS34 inhibitors with STING agonists enhances type I interferon signaling and anti‐tumor efficacy” (Molecular Oncology, 2024).
